Source: patent US8710179B2, “Compositions and methods for concentrating and depleting microorganisms” (priority 2006, dated 2014)
Values after ≈ are worked out from the molar mass of the structure shown. Where two headings read alike, the source gives them in different places.

What was measured:
[1] = Hydrophobicity estimation by RP-HPLC (percent acetonitrile at elution); type: physicochemical; settings: RP-HPLC C18, linear acetonitrile gradient 1% per minute
Excerpt: In order to estimate the hydrophobicity of each polymer, the polymer was eluted with a linear gradient of acetonitrile (1% per minute) on an HPLC reversed-phase C18 column, and the percent of acetonitrile at which the polymer was eluted was used for hydrophobicity estimation (see, “ACN (%)” in Table 3 below).
“ACN (%)” represents the percent of acetonitrile in the RP-HPLC gradient mobile phase at which the polymer was eluted and which corresponds to the estimated hydrophobicity of the polymer (column 4 in Table 3);

S. aureus = type: cell-based
Excerpt: (§1) “MIC (μM)” represents the minimal inhibitory concentration of each tested polymer in μM for each bacterial strain, measured as described previously (columns 5-8 in Table 3); For bacterial strains, “Ec” represents E. coli; “Pa” represents P. aeruginosa; “Sa” represents S. aureus; and “Bc” represents B. cereus; and […]

E. coli [2] = type: cell-based
Excerpt: as §1

P. aeruginosa = type: cell-based
Excerpt: as §1

B. cereus = type: cell-based
Excerpt: as §1

E. coli [3] = experiment: Bacteria capture assay with polymer-loaded resin beads (incl. kinetic studies); type: binding, Escherichia coli ATCC 35218; settings: for Bound E. coli (CFU/mg resin): polymer-loaded resin beads, 30 minutes incubation
Protocol: Various concentrations of bacteria in 500 μl luria bertani broth (LB) were shaken at room temperature in the presence of deprotected polymer-loaded beads (1.8 mg of polymer per sample) or protected polymer-loaded and unloaded beads as a control experiment in a centrifuge tube equipped with a 10 μm cutoff membrane (Whatman polypropylene mesh VectaSpin Micro). After 30 minutes incubation the samples were centrifuged at 21,000×g for 5 minutes to separate beads from unbound bacteria and further analyzed as follows.
(§2) To assess bacterial binding to the beads, filtrates were subjected to serial 10 fold dilutions and plated on LB agar plates. Cell counts were determined using the drop plate method (three 20 μl drops onto LB agar plates) after overnight incubation at 37° C. For the viability study, resins were spread directly on LB agar plates and incubated similarly. For kinetic studies, resins were incubated with 1×10^6 CFU/ml E. coli in LB for up to 15 minutes and filtered after the indicated time periods then plated for CFU count.
“Bound E. coli (CFU/mg resin)” represents the capturing capacity of bacterial binding per one milligram of polymer-loaded resin beads as assessed after 30 minutes incubation using the capture assay as presented herein (column 9 in Table 3).

GFP-expressing E. coli = experiment: Viability of polymer-captured bacteria, propidium iodide staining
Protocol: To establish the viability of polymer-captured bacteria, samples of polymer-captured GFP-expressing bacteria were incubated for 15 minutes at room temperature in a solution of 1 ml propidium iodide (Invitrogen, USA) in PBS (final concentration 0.06 mM), and thereafter centrifuged/washed in PBS and examined under a confocal fluorescent microscope using emission suitable for GFP and propidium iodide (excitation at 490 nm emission at 620 nm).

bacteria = experiment: Antibacterial activity (MIC) of the resin-free polymer, strain not given; type: cell-based
Excerpt: as §1

[4] = Regeneration and stability of polymer-loaded beads (HPLC and MS after cleavage); type: physicochemical
Excerpt: To verify their stability and the regeneration thereof, polymer-loaded resin beads were submitted to multiple cycles of bacterial binding followed by their release with 70% ethanol. To assess the potential polymer degradation, the polymer was cleaved from the resin, analyzed by HPLC and identified by mass spectrometry.
Polymer-loaded beads were exposed to 10 consecutive cycles of bacterial binding and release with 70% ethanol, and were submitted to a cleavage reaction. The cleaved polymers were analyzed by HPLC and mass spectrometry before and after the repetitive cycles. The HPLC chromatograms were obtained over […] elution using a 1% gradient of acetonitrile in water (30% to 60%), and the fraction containing the polymer was subjected to mass spectrometry analysis.

E. coli [5] = type: cell-based; remark: listed apart in the source
Protocol: as §2
The non-cytotoxicity of the beads-bound polymers was assessed by the viability of the polymer-captured bacteria. E. coli was incubated with beads-bound polymers (10^6 CFU/ml/mg resin), and after filtration, samples of the resins and the filtrates were plated on LB-agar individually.
FIG. 6 presents a series of images of LB-agar plates, showing the viability of the captured E. coli cells (1×10^6 CFU/ml) which were incubated for 30 minutes with deprotected (FIGS. 6A1 and 6A2) and Boc-protected (FIGS. 6B1 and 6B2) K(NC12K)7NH2-loaded resin beads, wherein FIGS. 6A1 and 6B1 show the plates of the plated filtrates and FIGS. 6A2 and 6B2 show the plates of filtered and plated beads.

E. coli [6] = experiment: Bacterial binding assay by real-time SPR on polymer-coated chip; settings: 10^6 CFU/ml E. coli
Protocol: Purified resin-free polymers were immobilized onto the CM5 sensor chip (BIAcore, Uppsala, Sweden) via the terminal carboxyl group using 2-(2-pyridinyldithio)ethaneamine (PDEA). Carboxyl activation was achieved as follows. Morpholino-ethanesulfonic acid (MES buffer, 0.1 ml of 0.1 M) at pH 5.0 was used to solubilize 0.1 mg of the polymer. The solution was mixed with PDEA to final concentration of 22 mM and ethyl-3-(3-dimethylaminopropyl)-carbodiimide (EDC) to final concentration of 13 mM, incubated for 1 hour on ice and then placed in a dialysis tube (floating in buffer) to remove the excess reagents. In parallel, a 1:1 solution (20 μl) of EDC (0.4 M 1-ethyl-3-(3-dimethylaminopropyl)-carbodiimide in water):NHS (0.1 M N-hydroxysuccinimide in water) was injected at a flow rate of 10 μl/minute, to activate the chip surface. […]
Bacterial binding to the polymer was determined by surface plasmon resonance (SPR) using the optical biosensor system BIAcore 2000 (BIAcore, Uppsala, Sweden). […]
For real-time monitoring of bacterial capture the present inventors have developed a model system based on the SPR technology that normally enables binding measurements between immobilized receptor molecules and soluble ligands. […] In the example presented herein, the polymer was immobilized onto the sensor chip and bacteria were injected over the polymer-bound surface and their binding monitored in real-time. […]

Row | Compound | ACN (%) at which the polymer was eluted (estimated hydrophobicity) [1] [%] | MIC (μM) Sa (S. aureus; resin-free polymer) [µM] | MIC (μM) Ec (E. coli [2]; resin-free polymer) [µM] | MIC (μM) Pa (P. aeruginosa; resin-free polymer) [µM] | MIC (μM) Bc (B. cereus; resin-free polymer) [µM] | Bound E. coli (CFU/mg resin) (E. coli [3]) | MIC (μM) Sa (S. aureus) [µM] | MIC (μM) Ec (E. coli [2]) [µM] | MIC (μM) Pa (P. aeruginosa) [µM] | MIC (μM) Bc (B. cereus) [µM] | other results
1 | CCCCCCCCCCCC(=O)NC(CCCCN)C(=O)NCCCCCCCC(=O)NC(CCCCN)C(=O)NCCCCCCCC(=O)NC(CCCCN)C(=O)NCCCCCCCC(=O)NC(CCCCN)C(=O)NCCCCCCCC(=O)NC(CCCCN)C(=O)NCCCCCCCC(=O)NC(CCCCN)C(=O)NCCCCCCCC(=O)NC(CCCCN)C(=O)NCCCCCCCC(=O)NC(CCCCN)C(N)=O (stereo not shown) [C12K(NC8K)7NH2] | 47.5 | 50 (≈ 111 µg/mL) | 3.1 (≈ 6.86 µg/mL) | 6.2 (≈ 13.7 µg/mL) | 12.5 (≈ 27.7 µg/mL) | 1 ± 0.5 × 10^3 CFU/mg resin | – | – | – | – | amount of captured bacteria (E. coli [3]; polymer-loaded resin beads exposed to E. coli): approximately 10^3 CFUs
2 | NCCCC[C@H](NC(=O)CCCCCCCNC(=O)[C@H](CCCCN)NC(=O)CCCCCCCNC(=O)[C@H](CCCCN)NC(=O)CCCCCCCNC(=O)[C@H](CCCCN)NC(=O)CCCCCCCNC(=O)[C@H](CCCCN)NC(=O)CCCCCCCNC(=O)[C@H](CCCCN)NC(=O)CCCCCCCNC(=O)[C@H](CCCCN)NC(=O)CCCCCCCNC(=O)[C@@H](N)CCCCN)C(N)=O [K(NC8K)7NH2] | 34 | – | – | – | – | 2 ± 0.6 × 10^2 CFU/mg resin | >50 | >50 | >50 | >50 | –
3 | NCCCC[C@H](NC(=O)CCCCCCCCCCCNC(=O)[C@H](CCCCN)NC(=O)CCCCCCCCCCCNC(=O)[C@H](CCCCN)NC(=O)CCCCCCCCCCCNC(=O)[C@H](CCCCN)NC(=O)CCCCCCCCCCCNC(=O)[C@H](CCCCN)NC(=O)CCCCCCCCCCCNC(=O)[C@H](CCCCN)NC(=O)CCCCCCCCCCCNC(=O)[C@H](CCCCN)NC(=O)CCCCCCCCCCCNC(=O)[C@@H](N)CCCCN)C(N)=O [K(NC12K)7NH2] | – | – | – | – | – | – | >50 | >50 | >50 | >50 | fraction of dead bacteria (GFP-expressing E. coli; polymer-captured bacteria, did not exceed control suspension): up to 12%; viability of polymer-captured bacteria (GFP-expressing E. coli; propidium iodide exclusion): most polymer-captured bacteria were alive; MIC (bacteria): more than 50 μM; stability of the polymer after repeated use [4]: remained unchanged; viable bacteria on the filtered and plated beads (E. coli [5]): remained alive
4 | H-KKKKKKKK-NH2 [Polymer K8NH2, reference compound] | 20 | >50 | >50 | >50 | >50 | 9 ± 1 × 10^2 CFU/mg resin | – | – | – | – | –
5 | H-KKKKKKKKKKKKKKK-NH2 [Polymer K15NH2, reference compound] | 22 | >50 | >50 | >50 | >50 | 1 ± 0.6 × 10^3 CFU/mg resin | – | – | – | – | fold less efficient than the K(NC12K)7NH2-coated chip (E. coli [6]): more than 100 fold; stability of the polymer after repeated use ([4]; 10 cycles of bacterial binding and release with 70% ethanol): deteriorated over time
6 | dermaseptin [reference compound] | – | – | – | – | – | – | – | – | – | – | fraction of dead bacteria upon exposure (GFP-expressing E. coli; polymer-bound bacteria exposed 15 minutes at 12.5 μM): significantly increased
